Assay results published in the supplement of paper PMC9386025.

Tests used:
Test in all cases: drug sensitivity score (DSS) (DSS (dimensionless)); higher = more sensitive (stronger drug response)
FIMM-PDC7 = patient-derived ovarian cancer cells; settings: genetic perturbation: none (patient-derived cell culture)
How it was run: (§1)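 Cells, either patient-derived cultures or ovarian cancer cell lines given 100 ng/ml doxycycline for no less than three days to induce shRNA, went into 384-well plates at 1 000 – 1 500 per well over drugs pre-plated in five concentrations across a 10,000-fold range. The plates were held for three days at 37 °C with 5.0 % CO2. Cell viability was then taken from CellTiter-Glo luminescence on a PHERAstar FS. For each drug, a drug sensitivity score from its dose-response curve was obtained by a method described earlier.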

OVSAHO = system: OVSAHO
How it was run: as §1

FIMM-PDC6 = patient-derived ovarian cancer cells; settings: genetic perturbation: none (patient-derived cell culture)
How it was run: as §1

FIMM-PDC3 = patient-derived ovarian cancer cells; settings: genetic perturbation: none (patient-derived cell culture)
How it was run: as §1

JHOS2 = system: JHOS2
How it was run: as §1

FIMM-PDC4 = patient-derived ovarian cancer cells; settings: genetic perturbation: none (patient-derived cell culture)
How it was run: as §1

FIMM-PDC1 = patient-derived ovarian cancer cells; settings: genetic perturbation: none (patient-derived cell culture)
How it was run: as §1

FIMM-PDC5 = patient-derived ovarian cancer cells; settings: genetic perturbation: none (patient-derived cell culture)
How it was run: as §1

Kuramochi = system: Kuramochi
How it was run: as §1

[1] = genetic perturbation: DOX-induced PTK7 shRNA knockdown
[2] = genetic perturbation: DOX-induced control shRNA

Compound	drug sensitivity score (FIMM-PDC7)	drug sensitivity score (OVSAHO; [1])	drug sensitivity score (OVSAHO; [2])	drug sensitivity score (FIMM-PDC6)	drug sensitivity score (FIMM-PDC3)	drug sensitivity score (JHOS2; [1])	drug sensitivity score (JHOS2; [2])	drug sensitivity score (FIMM-PDC4)	drug sensitivity score (FIMM-PDC1)	drug sensitivity score (FIMM-PDC5)	drug sensitivity score (Kuramochi; [1])	drug sensitivity score (Kuramochi; [2])
CCS(=O)(=O)N1CCN(c2ccc(Nc3ncc(C(N)=O)c(NC4CC4)n3)cc2)CC1 [Cerdulatinib]	5.3	< 0	< 0	< 0	< 0	8.2	< 0	< 0	< 0	< 0	< 0	< 0
CC(C)[C@H]1C(=O)N[C@@H](CCCNC(=N)N)C(=O)NCC(=O)N[C@@H](CC(=O)O)C(=O)N[C@H](Cc2ccccc2)C(=O)N1C [Cilengitide]	1.3	9.6	6.1	< 0	< 0	5	0.9	< 0	0.75	< 0	8.65	3
N.N.[Cl][Pt][Cl] [Cisplatin]	4.7	17.6	5.1	9.8	18.9	14.9	4.1	5.7	4.8	5.4	14.2	7
Nc1nc(Cl)nc2c1ncn2[C@@H]1O[C@H](CO)[C@@H](O)[C@@H]1F [Clofarabine]	3.2	2.5	3.4	3.2	6.1	15.1	10.3	7.4	3.15	13.6	< 0	< 0
CCN(CC)CCOc1ccc(C(=C(Cl)c2ccccc2)c2ccccc2)cc1 [Clomifene]	7	5.2	4.2	5.2	5.7	6.9	4.1	7.5	7.05	8	5.45	2
O=C(c1ccc(F)c(F)c1Nc1ccc(I)cc1F)N1CC(O)([C@@H]2CCCCN2)C1 [Cobimetinib]	7.4	9	3.9	12	4.8	0.8	11.1	12.4	< 0	12.7	6.05	2.8
COc1c(OCCCN2CCOCC2)ccc2c1N=C(NC(=O)c1cnc(N)nc1)N1CCN=C21 [Copanlisib]	11.1	7.8	10.5	10.2	6.2	4.4	5.8	12.4	7.3	17.3	6.95	4.6
CC1(COc2ccc3c(c2)ncn3-c2ccc3cccc(N4CCC(N)CC4)c3n2)COC1 [Crenolanib]	4.7	3.8	3.7	4	5.3	8.5	5.7	5	3.55	8.5	3.65	2.9
COc1cc2ncnc(Nc3ccc(F)c(Cl)c3)c2cc1NC(=O)/C=C/CN1CCCCC1 [Dacomitinib]	14	4.8	2.4	18	13.1	< 0	2	18.2	3.2	23.4	2.45	1.6
Cc1c2oc3c(C)ccc(C(=O)N[C@@H]4C(=O)N[C@H](C(C)C)C(=O)N5CCC[C@H]5C(=O)N(C)CC(=O)N(C)[C@@H](C(C)C)C(=O)O[C@@H]4C)c3nc-2c(C(=O)N[C@@H]2C(=O)N[C@H](C(C)C)C(=O)N3CCC[C@H]3C(=O)N(C)CC(=O)N(C)[C@@H](C(C)C)C(=O)O[C@@H]2C)c(N)c1=O [Dactinomycin]	26	23.1	18	22.1	26.5	21.1	23.4	23.1	23.6	25.2	23.3	19.9
Cn1c(=O)n(-c2ccc(C(C)(C)C#N)cc2)c2c3cc(-c4cnc5ccccc5c4)ccc3ncc21 [Dactolisib]	17	11.8	13.8	19	11.1	10.3	14.1	17.2	10.1	21.6	11.7	11.9
CO[C@@H](C(=O)N1Cc2[nH]nc(NC(=O)c3ccc(N4CCN(C)CC4)cc3)c2C1)c1ccccc1 [Danusertib]	1.8	17.5	7.5	9.4	9.9	6.6	5.5	11.6	7.7	9.6	10.4	13
Cc1nc(Nc2ncc(C(=O)Nc3c(C)cccc3Cl)s2)cc(N2CCN(CCO)CC2)n1 [Dasatinib]	3.2	14.5	15	10.7	13.9	8.7	10.1	19	6.05	17.8	17.9	9.5
COc1cccc2c1C(=O)c1c(O)c3c(c(O)c1C2=O)C[C@@](O)(C(C)=O)C[C@@H]3O[C@H]1C[C@H](N)[C@H](O)[C@H](C)O1 [Daunorubicin]	9	8.3	4.4	7.4	7.8	4	5.6	8.4	4.65	10.7	4.2	4.6
C[C@H]1O[C@@H](O[C@H]2[C@@H](O)C[C@H](O[C@H]3[C@@H](O)C[C@H](O[C@H]4CC[C@@]5(C)[C@H](CC[C@@H]6[C@@H]5C[C@@H](O)[C@]5(C)[C@@H](C7=CC(=O)OC7)CC[C@]65O)C4)O[C@@H]3C)O[C@@H]2C)C[C@H](O)[C@@H]1O [Digoxin]	12.5	8.6	8	16.6	12	17.2	13	14.6	9.4	11.9	8.45	7.4
